In ChEMBL document CHEMBL6127158, “Novel Aminopyrazole Inhibitors of PDE11A for the Treatment of Alzheimer's Disease and Other Types of Dementia” (ACS Med Chem Lett, 2024):
Activity calls are given as the source filed them. No cut-off for these calls is given here.

What follows are compounds tested against Dual 3',5'-cyclic-AMP and -GMP phosphodiesterase 11A (Homo sapiens) (UniProt Q9HCR9) (assay: Inhibition of recombinant N-terminal GST-tagged human PDE11A4 (1 to 943 residues) expressed in Sf9 cells at 500 nM using cGMP and cAMP as substrates by Ba(OH)2 precipitation method relative to control).
Sequence of Dual 3',5'-cyclic-AMP and -GMP phosphodiesterase 11A (Homo sapiens) (Q9HCR9 whole entry, looked up, the tested form may be a part): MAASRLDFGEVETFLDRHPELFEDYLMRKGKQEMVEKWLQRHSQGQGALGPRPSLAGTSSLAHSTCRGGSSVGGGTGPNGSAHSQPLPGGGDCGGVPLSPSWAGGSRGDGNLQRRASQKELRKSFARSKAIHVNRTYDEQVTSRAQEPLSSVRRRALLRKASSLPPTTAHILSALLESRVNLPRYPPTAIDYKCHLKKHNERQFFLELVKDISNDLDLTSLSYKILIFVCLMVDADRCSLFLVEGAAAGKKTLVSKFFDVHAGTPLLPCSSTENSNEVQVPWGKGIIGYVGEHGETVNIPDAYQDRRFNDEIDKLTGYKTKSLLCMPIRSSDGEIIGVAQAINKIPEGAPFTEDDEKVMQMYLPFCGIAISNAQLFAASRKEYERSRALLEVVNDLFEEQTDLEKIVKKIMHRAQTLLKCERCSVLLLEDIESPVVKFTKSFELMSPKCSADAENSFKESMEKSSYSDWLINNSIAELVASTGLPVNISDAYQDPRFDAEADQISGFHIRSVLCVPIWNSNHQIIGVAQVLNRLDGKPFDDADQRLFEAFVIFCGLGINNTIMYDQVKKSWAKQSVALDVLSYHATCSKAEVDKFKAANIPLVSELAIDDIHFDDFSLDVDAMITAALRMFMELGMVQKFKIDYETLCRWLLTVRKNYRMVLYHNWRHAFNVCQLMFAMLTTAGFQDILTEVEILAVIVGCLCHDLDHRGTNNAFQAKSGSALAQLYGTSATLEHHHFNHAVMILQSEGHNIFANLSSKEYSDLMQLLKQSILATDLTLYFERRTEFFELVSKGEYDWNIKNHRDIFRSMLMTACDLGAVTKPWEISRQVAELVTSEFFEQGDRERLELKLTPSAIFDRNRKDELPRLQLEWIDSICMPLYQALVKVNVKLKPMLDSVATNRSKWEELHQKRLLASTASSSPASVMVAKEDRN

inhibition | SMILES
51% | CCN(CC)C(=O)c1cc(-c2ccnn2C)nc2c1c(C)nn2-c1ccc(Cl)c(F)c1
1% | Cc1nn(-c2ccccc2)c2nc(-c3cccs3)cc(C(=O)N3CCCC3)c12
inactive | CCN(CC)C(=O)c1ccnc2c1c(C)nn2-c1ccccc1
